Experimental data taken from PubChem BioAssay (NCI).
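Step 1: Grow cells in 96-well plates. Step 2: Expose to compound for 48 hours at 5 concentrations. Step 3: Interpolate endpoints linearly; if unreached, use highest concentration. TGI: concentration producing complete growth inhibition.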

Tests used:
Experiment in all cases: NCI tumour cell line growth inhibition, 48 h
A498 renal = tested on: A498 renal
A549 NSCLC = tested on: A549 NSCLC
ACHN renal = tested on: ACHN renal
CCRF-CEM leukemia = tested on: CCRF-CEM leukemia
COLO 205 colon = tested on: COLO 205 colon
DLD-1 colon = tested on: DLD-1 colon
DMS 114 small cell lung = tested on: DMS 114 small cell lung
DMS 273 small cell lung = tested on: DMS 273 small cell lung
EKVX NSCLC = tested on: EKVX NSCLC
HCC-2998 colon = tested on: HCC-2998 colon
HCT-116 colon = tested on: HCT-116 colon
HCT-15 colon = tested on: HCT-15 colon
HL-60(TB) leukemia = tested on: HL-60(TB) leukemia
HOP-18 NSCLC = tested on: HOP-18 NSCLC
HOP-62 NSCLC = tested on: HOP-62 NSCLC
HOP-92 NSCLC = tested on: HOP-92 NSCLC
HT29 colon = tested on: HT29 colon
IGROV1 ovarian = tested on: IGROV1 ovarian
K-562 leukemia = tested on: K-562 leukemia
KM12 colon = tested on: KM12 colon
KM20L2 colon = tested on: KM20L2 colon
LOX IMVI melanoma = tested on: LOX IMVI melanoma
LXFL 529 NSCLC = tested on: LXFL 529 NSCLC
M14 melanoma = tested on: M14 melanoma
M19-MEL melanoma = tested on: M19-MEL melanoma
MALME-3M melanoma = tested on: MALME-3M melanoma
MOLT-4 leukemia = tested on: MOLT-4 leukemia
NCI-H226 lung = tested on: NCI-H226 lung
NCI-H23 lung = tested on: NCI-H23 lung
NCI-H460 lung = tested on: NCI-H460 lung
OVCAR-3 ovarian = tested on: OVCAR-3 ovarian
OVCAR-4 ovarian = tested on: OVCAR-4 ovarian
OVCAR-5 ovarian = tested on: OVCAR-5 ovarian
OVCAR-8 ovarian = tested on: OVCAR-8 ovarian
RPMI-8226 leukemia = tested on: RPMI-8226 leukemia
RXF 393 renal = tested on: RXF 393 renal
RXF-631 renal = tested on: RXF-631 renal
SF-268 CNS = tested on: SF-268 CNS
SF-295 CNS = tested on: SF-295 CNS
SF-539 CNS = tested on: SF-539 CNS
SK-MEL-2 melanoma = tested on: SK-MEL-2 melanoma
SK-MEL-28 melanoma = tested on: SK-MEL-28 melanoma
SK-MEL-5 melanoma = tested on: SK-MEL-5 melanoma
SK-OV-3 ovarian = tested on: SK-OV-3 ovarian
SN12C renal = tested on: SN12C renal
SNB-75 CNS = tested on: SNB-75 CNS
SNB-78 CNS = tested on: SNB-78 CNS
SR leukemia = tested on: SR leukemia
SW-620 colon = tested on: SW-620 colon
U251 CNS = tested on: U251 CNS
UACC-257 melanoma = tested on: UACC-257 melanoma
UACC-62 melanoma = tested on: UACC-62 melanoma
UO-31 renal = tested on: UO-31 renal
MCF7 breast = tested on: MCF7 breast
NCI-H522 lung = tested on: NCI-H522 lung
NCI/ADR-RES ovarian = tested on: NCI/ADR-RES ovarian
P388 leukemia = tested on: P388 leukemia
SN12K1 renal = tested on: SN12K1 renal
SNB-19 CNS = tested on: SNB-19 CNS
XF 498 CNS = tested on: XF 498 CNS

**Q.** How did the TGI (A498 renal) turn out when `COc1ccc(Oc2ccccc2N)cc1` was run?
**A.** > 100 µM

**Q.** What about the TGI (A549 NSCLC) of the same molecule?
**A.** > 100 µM

**Q.** And the TGI (ACHN renal)?
**A.** > 100 µM

**Q.** What about the TGI (CCRF-CEM leukemia) of the same molecule?
**A.** > 100 µM

**Q.** And the TGI (COLO 205 colon)?
**A.** 35.4 µM

**Q.** What about the TGI (DLD-1 colon) of the same molecule?
**A.** > 100 µM

**Q.** What about the TGI (DMS 114 small cell lung) of the same molecule?
**A.** > 100 µM

**Q.** And the TGI (DMS 273 small cell lung)?
**A.** > 100 µM

**Q.** What about the TGI (EKVX NSCLC) of the same molecule?
**A.** > 100 µM

**Q.** And the TGI (HCC-2998 colon)?
**A.** 57.1 µM

**Q.** What about the TGI (HCT-116 colon) of the same molecule?
**A.** > 100 µM

**Q.** And the TGI (HCT-15 colon)?
**A.** > 100 µM

**Q.** What about the TGI (HL-60(TB) leukemia) of the same molecule?
**A.** > 100 µM

**Q.** And the TGI (HOP-18 NSCLC)?
**A.** > 100 µM

**Q.** And the TGI (HOP-62 NSCLC)?
**A.** > 100 µM

**Q.** And the TGI (HOP-92 NSCLC)?
**A.** > 100 µM

**Q.** What about the TGI (HT29 colon) of the same molecule?
**A.** > 100 µM

**Q.** And the TGI (IGROV1 ovarian)?
**A.** > 100 µM

**Q.** And the TGI (K-562 leukemia)?
**A.** > 100 µM

**Q.** And the TGI (KM12 colon)?
**A.** > 100 µM

**Q.** And the TGI (KM20L2 colon)?
**A.** > 100 µM

**Q.** And the TGI (LOX IMVI melanoma)?
**A.** > 100 µM

**Q.** And the TGI (LXFL 529 NSCLC)?
**A.** > 100 µM

**Q.** What about the TGI (M14 melanoma) of the same molecule?
**A.** > 100 µM

**Q.** What about the TGI (M19-MEL melanoma) of the same molecule?
**A.** > 100 µM

**Q.** And the TGI (MALME-3M melanoma)?
**A.** > 100 µM

**Q.** And the TGI (MOLT-4 leukemia)?
**A.** > 100 µM

**Q.** What about the TGI (NCI-H226 lung) of the same molecule?
**A.** > 100 µM

**Q.** And the TGI (NCI-H23 lung)?
**A.** > 100 µM

**Q.** And the TGI (NCI-H460 lung)?
**A.** > 100 µM

**Q.** And the TGI (OVCAR-3 ovarian)?
**A.** > 100 µM

**Q.** And the TGI (OVCAR-4 ovarian)?
**A.** > 100 µM

**Q.** What about the TGI (OVCAR-5 ovarian) of the same molecule?
**A.** > 100 µM

**Q.** And the TGI (OVCAR-8 ovarian)?
**A.** > 100 µM

**Q.** And the TGI (RPMI-8226 leukemia)?
**A.** > 100 µM

**Q.** What about the TGI (RXF 393 renal) of the same molecule?
**A.** 98.2 µM

**Q.** What about the TGI (RXF-631 renal) of the same molecule?
**A.** > 100 µM

**Q.** And the TGI (SF-268 CNS)?
**A.** > 100 µM

**Q.** What about the TGI (SF-295 CNS) of the same molecule?
**A.** > 100 µM

**Q.** What about the TGI (SF-539 CNS) of the same molecule?
**A.** 57.3 µM

**Q.** What about the TGI (SK-MEL-2 melanoma) of the same molecule?
**A.** > 100 µM

**Q.** And the TGI (SK-MEL-28 melanoma)?
**A.** 95.1 µM

**Q.** What about the TGI (SK-MEL-5 melanoma) of the same molecule?
**A.** 33.6 µM

**Q.** What about the TGI (SK-OV-3 ovarian) of the same molecule?
**A.** > 100 µM

**Q.** And the TGI (SN12C renal)?
**A.** > 100 µM

**Q.** What about the TGI (SNB-75 CNS) of the same molecule?
**A.** > 100 µM

**Q.** What about the TGI (SNB-78 CNS) of the same molecule?
**A.** > 100 µM

**Q.** And the TGI (SR leukemia)?
**A.** > 100 µM

**Q.** What about the TGI (SW-620 colon) of the same molecule?
**A.** > 100 µM

**Q.** What about the TGI (U251 CNS) of the same molecule?
**A.** 38.6 µM

**Q.** What about the TGI (UACC-257 melanoma) of the same molecule?
**A.** > 100 µM

**Q.** And the TGI (UACC-62 melanoma)?
**A.** > 100 µM

**Q.** And the TGI (UO-31 renal)?
**A.** > 100 µM

**Q.** Which TGI (A498 renal) does the source give for `Nc1c(S(=O)(=O)O)cc(S(=O)(=O)O)c2ccc(N=Nc3ccc(/C=C/c4ccc(N=Nc5ccc6c(S(=O)(=O)O)cc(S(=O)(=O)O)c(N)c6c5O)cc4S(=O)(=O)O)c(S(=O)(=O)O)c3)c(O)c12` here?
**A.** > 100 µM

**Q.** And the TGI (A549 NSCLC)?
**A.** > 100 µM

**Q.** And the TGI (CCRF-CEM leukemia)?
**A.** > 100 µM

**Q.** And the TGI (COLO 205 colon)?
**A.** > 100 µM

**Q.** And the TGI (DLD-1 colon)?
**A.** > 100 µM

**Q.** What about the TGI (DMS 114 small cell lung) of the same molecule?
**A.** > 100 µM

**Q.** What about the TGI (DMS 273 small cell lung) of the same molecule?
**A.** > 100 µM

**Q.** What about the TGI (EKVX NSCLC) of the same molecule?
**A.** > 100 µM

**Q.** And the TGI (HCC-2998 colon)?
**A.** > 100 µM

**Q.** And the TGI (HCT-116 colon)?
**A.** > 100 µM

**Q.** What about the TGI (HCT-15 colon) of the same molecule?
**A.** > 100 µM

**Q.** And the TGI (HL-60(TB) leukemia)?
**A.** > 100 µM

**Q.** And the TGI (HOP-18 NSCLC)?
**A.** > 100 µM

**Q.** And the TGI (HOP-62 NSCLC)?
**A.** > 100 µM

**Q.** What about the TGI (HOP-92 NSCLC) of the same molecule?
**A.** > 100 µM

**Q.** And the TGI (HT29 colon)?
**A.** > 100 µM

**Q.** What about the TGI (IGROV1 ovarian) of the same molecule?
**A.** > 100 µM

**Q.** And the TGI (K-562 leukemia)?
**A.** > 100 µM

**Q.** What about the TGI (KM12 colon) of the same molecule?
**A.** > 100 µM

**Q.** What about the TGI (KM20L2 colon) of the same molecule?
**A.** > 100 µM

**Q.** What about the TGI (LOX IMVI melanoma) of the same molecule?
**A.** > 100 µM

**Q.** What about the TGI (M19-MEL melanoma) of the same molecule?
**A.** > 100 µM

**Q.** What about the TGI (MALME-3M melanoma) of the same molecule?
**A.** > 100 µM

**Q.** What about the TGI (MCF7 breast) of the same molecule?
**A.** > 100 µM

**Q.** What about the TGI (MOLT-4 leukemia) of the same molecule?
**A.** > 100 µM

**Q.** What about the TGI (NCI-H226 lung) of the same molecule?
**A.** > 100 µM

**Q.** What about the TGI (NCI-H23 lung) of the same molecule?
**A.** > 100 µM

**Q.** And the TGI (NCI-H460 lung)?
**A.** > 100 µM

**Q.** What about the TGI (NCI-H522 lung) of the same molecule?
**A.** > 100 µM

**Q.** What about the TGI (NCI/ADR-RES ovarian) of the same molecule?
**A.** > 100 µM

**Q.** And the TGI (OVCAR-3 ovarian)?
**A.** > 100 µM

**Q.** What about the TGI (OVCAR-4 ovarian) of the same molecule?
**A.** > 100 µM

**Q.** What about the TGI (OVCAR-5 ovarian) of the same molecule?
**A.** > 100 µM

**Q.** And the TGI (OVCAR-8 ovarian)?
**A.** > 100 µM

**Q.** What about the TGI (P388 leukemia) of the same molecule?
**A.** > 100 µM

**Q.** And the TGI (RPMI-8226 leukemia)?
**A.** > 100 µM

**Q.** And the TGI (RXF 393 renal)?
**A.** > 100 µM

**Q.** And the TGI (SF-268 CNS)?
**A.** > 100 µM

**Q.** What about the TGI (SF-295 CNS) of the same molecule?
**A.** > 100 µM

**Q.** What about the TGI (SF-539 CNS) of the same molecule?
**A.** > 100 µM

**Q.** What about the TGI (SK-MEL-2 melanoma) of the same molecule?
**A.** > 100 µM

**Q.** What about the TGI (SK-MEL-28 melanoma) of the same molecule?
**A.** > 100 µM

**Q.** What about the TGI (SK-MEL-5 melanoma) of the same molecule?
**A.** > 100 µM

**Q.** What about the TGI (SK-OV-3 ovarian) of the same molecule?
**A.** > 100 µM

**Q.** What about the TGI (SN12C renal) of the same molecule?
**A.** > 100 µM

**Q.** What about the TGI (SN12K1 renal) of the same molecule?
**A.** > 100 µM

**Q.** And the TGI (SNB-19 CNS)?
**A.** > 100 µM

**Q.** And the TGI (SNB-75 CNS)?
**A.** > 100 µM

**Q.** And the TGI (SNB-78 CNS)?
**A.** > 100 µM

**Q.** What about the TGI (SW-620 colon) of the same molecule?
**A.** > 100 µM

**Q.** What about the TGI (U251 CNS) of the same molecule?
**A.** > 100 µM

**Q.** And the TGI (UACC-257 melanoma)?
**A.** > 100 µM

**Q.** And the TGI (UACC-62 melanoma)?
**A.** > 100 µM

**Q.** And the TGI (UO-31 renal)?
**A.** > 100 µM

**Q.** And the TGI (XF 498 CNS)?
**A.** > 92.9 µM
